Measured values published in ChEMBL document CHEMBL1201862, “PubChem BioAssay data set” (2004).
Active and inactive are the calls of the source.

Experiments:
Vero [1] = assay: cells; assay type: functional, cell-based; settings: Chlorocebus sabaeus
Vero [2] = assay: cells; assay type: functional; settings: Chlorocebus sabaeus
Exodeoxyribonuclease V = molecular target: T1, Exodeoxyribonuclease V (Escherichia coli (strain K12), UniProt P04993+P07648+P08394); assay: E. coli RecBCD inhibitors, dose response, counter-screen for AddAB inhibitor project, absorbance, V66 E. coli, mutant T4 phage (AID 492957); assay type: functional, cell-based, Escherichia coli str. K-12 substr. MG1655
T1 sequence (P04993 whole entry): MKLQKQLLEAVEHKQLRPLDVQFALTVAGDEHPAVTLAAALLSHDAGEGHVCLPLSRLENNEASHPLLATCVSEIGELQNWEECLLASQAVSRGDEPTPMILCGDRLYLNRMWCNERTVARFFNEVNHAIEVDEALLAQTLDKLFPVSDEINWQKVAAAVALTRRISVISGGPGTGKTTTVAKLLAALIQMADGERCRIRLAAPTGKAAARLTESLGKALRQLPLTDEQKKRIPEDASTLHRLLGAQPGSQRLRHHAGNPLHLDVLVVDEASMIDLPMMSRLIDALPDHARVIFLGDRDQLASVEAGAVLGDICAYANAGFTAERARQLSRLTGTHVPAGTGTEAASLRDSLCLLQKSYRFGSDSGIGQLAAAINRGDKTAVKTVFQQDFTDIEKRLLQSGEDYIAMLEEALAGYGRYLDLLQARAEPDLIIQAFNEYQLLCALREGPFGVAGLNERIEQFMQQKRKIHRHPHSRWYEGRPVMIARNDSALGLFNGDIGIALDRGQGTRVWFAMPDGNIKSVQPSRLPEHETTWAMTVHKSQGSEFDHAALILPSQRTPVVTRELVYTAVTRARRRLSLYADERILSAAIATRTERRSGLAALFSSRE
T1 sequence (P07648 whole entry): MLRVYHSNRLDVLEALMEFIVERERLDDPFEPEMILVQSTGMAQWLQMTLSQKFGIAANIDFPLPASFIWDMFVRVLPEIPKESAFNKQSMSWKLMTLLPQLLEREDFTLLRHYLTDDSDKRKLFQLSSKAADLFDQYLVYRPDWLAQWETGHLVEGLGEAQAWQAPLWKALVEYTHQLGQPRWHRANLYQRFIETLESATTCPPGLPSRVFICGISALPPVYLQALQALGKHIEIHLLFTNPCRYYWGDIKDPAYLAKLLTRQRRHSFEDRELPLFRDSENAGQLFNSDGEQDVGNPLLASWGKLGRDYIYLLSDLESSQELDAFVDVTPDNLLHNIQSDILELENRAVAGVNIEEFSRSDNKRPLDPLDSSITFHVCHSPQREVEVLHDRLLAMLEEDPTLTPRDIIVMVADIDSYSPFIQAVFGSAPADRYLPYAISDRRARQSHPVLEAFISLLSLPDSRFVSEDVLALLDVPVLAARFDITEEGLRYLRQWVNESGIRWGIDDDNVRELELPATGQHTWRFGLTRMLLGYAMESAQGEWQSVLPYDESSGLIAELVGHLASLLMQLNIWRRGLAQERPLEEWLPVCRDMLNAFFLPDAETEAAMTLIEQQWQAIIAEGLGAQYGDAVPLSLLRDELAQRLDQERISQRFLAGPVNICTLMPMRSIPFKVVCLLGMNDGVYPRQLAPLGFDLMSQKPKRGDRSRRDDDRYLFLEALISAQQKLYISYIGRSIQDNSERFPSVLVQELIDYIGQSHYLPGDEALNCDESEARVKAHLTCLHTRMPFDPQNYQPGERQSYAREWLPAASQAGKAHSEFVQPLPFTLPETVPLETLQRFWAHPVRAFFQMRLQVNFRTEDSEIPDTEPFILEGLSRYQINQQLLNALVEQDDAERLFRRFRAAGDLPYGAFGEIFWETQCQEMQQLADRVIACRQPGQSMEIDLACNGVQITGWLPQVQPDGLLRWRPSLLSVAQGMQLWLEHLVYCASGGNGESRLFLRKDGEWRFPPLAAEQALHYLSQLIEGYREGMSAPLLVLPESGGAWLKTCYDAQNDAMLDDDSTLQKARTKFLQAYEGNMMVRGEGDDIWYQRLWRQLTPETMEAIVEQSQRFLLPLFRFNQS
T1 sequence (P08394 whole entry): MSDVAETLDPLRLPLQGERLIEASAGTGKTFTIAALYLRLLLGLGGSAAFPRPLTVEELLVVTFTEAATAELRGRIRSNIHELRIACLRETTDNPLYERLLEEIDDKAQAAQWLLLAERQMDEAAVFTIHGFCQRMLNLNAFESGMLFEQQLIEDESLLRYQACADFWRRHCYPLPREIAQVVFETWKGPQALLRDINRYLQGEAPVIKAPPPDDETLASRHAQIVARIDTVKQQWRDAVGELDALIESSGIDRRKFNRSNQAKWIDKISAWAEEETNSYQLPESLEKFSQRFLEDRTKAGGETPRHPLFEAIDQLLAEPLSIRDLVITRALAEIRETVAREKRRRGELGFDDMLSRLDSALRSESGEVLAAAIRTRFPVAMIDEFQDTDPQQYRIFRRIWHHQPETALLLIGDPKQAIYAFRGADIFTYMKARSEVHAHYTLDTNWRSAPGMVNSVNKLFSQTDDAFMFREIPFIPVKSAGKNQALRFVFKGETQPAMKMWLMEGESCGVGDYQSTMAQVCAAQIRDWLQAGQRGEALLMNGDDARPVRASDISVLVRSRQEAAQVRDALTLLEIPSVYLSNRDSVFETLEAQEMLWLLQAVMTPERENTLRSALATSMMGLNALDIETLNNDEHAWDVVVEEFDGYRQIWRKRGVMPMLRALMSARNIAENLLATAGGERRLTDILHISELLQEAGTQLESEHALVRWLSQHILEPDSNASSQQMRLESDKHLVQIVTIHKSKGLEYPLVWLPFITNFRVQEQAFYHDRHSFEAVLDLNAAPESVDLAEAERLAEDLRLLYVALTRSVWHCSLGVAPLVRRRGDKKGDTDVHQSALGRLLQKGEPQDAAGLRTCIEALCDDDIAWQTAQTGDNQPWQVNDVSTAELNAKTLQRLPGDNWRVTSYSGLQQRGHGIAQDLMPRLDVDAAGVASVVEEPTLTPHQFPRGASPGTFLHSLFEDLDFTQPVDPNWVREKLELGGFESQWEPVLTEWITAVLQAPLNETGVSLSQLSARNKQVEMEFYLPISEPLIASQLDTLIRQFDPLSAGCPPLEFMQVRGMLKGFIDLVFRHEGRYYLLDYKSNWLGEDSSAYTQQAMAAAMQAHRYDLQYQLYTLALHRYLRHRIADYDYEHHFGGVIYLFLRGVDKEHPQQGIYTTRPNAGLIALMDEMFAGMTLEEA

[3] = Counterscreen for AddAB inhibitors: absorbance-based bacterial cell-based high throughput dose response assay for inhibitors of bacterial viability. [Related pubchem assays (depositor defined):AID435030, AID449728, AID449731, AID488942, AID488955, AID488956]; assay type: functional
[4] = molecular target: T2, Carboxy-terminal domain RNA polymerase II polypeptide A small phosphatase 1 (Homo sapiens, UniProt Q9GZU7); assay: inhibitors of CTDSP1, concentration-response testing, biochemical assay, absorbance-based, actives from ultra-high-throughput screening (AID 540297); assay type: functional
T2 sequence (Q9GZU7 whole entry): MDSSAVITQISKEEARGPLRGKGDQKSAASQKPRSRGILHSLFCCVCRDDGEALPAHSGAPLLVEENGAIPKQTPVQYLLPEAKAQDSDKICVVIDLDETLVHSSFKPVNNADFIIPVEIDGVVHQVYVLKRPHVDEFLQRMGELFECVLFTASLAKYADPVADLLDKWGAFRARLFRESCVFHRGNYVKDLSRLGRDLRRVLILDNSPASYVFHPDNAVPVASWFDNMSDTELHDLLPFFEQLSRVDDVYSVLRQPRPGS

Protein skinhead-1 = molecular target: T3, Protein skinhead-1 (Caenorhabditis elegans, UniProt P34707); assay type: functional
T3 sequence (P34707 whole entry): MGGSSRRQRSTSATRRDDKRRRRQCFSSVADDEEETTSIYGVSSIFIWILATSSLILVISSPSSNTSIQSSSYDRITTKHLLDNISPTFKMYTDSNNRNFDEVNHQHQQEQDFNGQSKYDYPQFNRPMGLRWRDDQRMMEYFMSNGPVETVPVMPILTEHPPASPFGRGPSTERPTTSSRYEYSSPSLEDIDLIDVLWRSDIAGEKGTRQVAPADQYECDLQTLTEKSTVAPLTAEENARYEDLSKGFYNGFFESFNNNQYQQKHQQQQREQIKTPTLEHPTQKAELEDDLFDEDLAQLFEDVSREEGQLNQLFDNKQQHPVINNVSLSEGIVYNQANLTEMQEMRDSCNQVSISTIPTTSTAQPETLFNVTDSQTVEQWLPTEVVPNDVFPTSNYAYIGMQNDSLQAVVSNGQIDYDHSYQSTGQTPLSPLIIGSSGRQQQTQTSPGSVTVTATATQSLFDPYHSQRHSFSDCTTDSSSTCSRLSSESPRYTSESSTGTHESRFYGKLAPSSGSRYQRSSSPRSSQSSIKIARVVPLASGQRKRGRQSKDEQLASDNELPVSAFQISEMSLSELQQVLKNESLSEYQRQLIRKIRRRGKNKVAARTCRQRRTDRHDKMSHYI

[5] = molecular target: DNA dC->dU-editing enzyme APOBEC-3A (Homo sapiens, UniProt P31941); assay: Dose Response confirmation of small molecule APOBEC3A DNA Deaminase Inhibitors via a fluorescence-based single-stranded DNA deaminase assay. [Related pubchem assays (depositor defined):AID493011, AID493024]; assay type: functional
Chain of DNA dC->dU-editing enzyme APOBEC-3A (P31941 whole entry): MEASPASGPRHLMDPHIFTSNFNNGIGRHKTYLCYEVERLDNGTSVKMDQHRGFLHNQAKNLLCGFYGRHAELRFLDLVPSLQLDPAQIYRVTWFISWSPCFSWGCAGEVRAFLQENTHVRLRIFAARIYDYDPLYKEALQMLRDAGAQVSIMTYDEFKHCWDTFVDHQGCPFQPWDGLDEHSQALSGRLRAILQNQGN

[6] = molecular target: DNA dC->dU-editing enzyme APOBEC-3G (Homo sapiens, UniProt Q9HC16); assay type: functional;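 also: Dose-response counterscreen measuring inhibition of APOBEC3G DNA deaminase activity, run while confirming APOBEC3A inhibitors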
Chain of DNA dC->dU-editing enzyme APOBEC-3G (Q9HC16 whole entry): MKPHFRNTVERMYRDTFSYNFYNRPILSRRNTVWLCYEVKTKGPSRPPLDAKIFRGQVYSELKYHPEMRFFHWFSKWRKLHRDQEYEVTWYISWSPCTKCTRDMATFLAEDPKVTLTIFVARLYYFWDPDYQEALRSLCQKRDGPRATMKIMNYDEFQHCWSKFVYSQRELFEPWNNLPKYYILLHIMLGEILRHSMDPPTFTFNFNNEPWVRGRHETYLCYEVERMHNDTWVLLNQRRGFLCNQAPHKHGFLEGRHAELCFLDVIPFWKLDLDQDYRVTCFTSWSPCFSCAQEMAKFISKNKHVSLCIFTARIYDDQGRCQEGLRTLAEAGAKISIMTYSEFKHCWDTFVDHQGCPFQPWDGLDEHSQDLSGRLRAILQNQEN

BJ [7] = assay: cytotoxicity toward BJ-TERT fibroblasts, dose response, cell-based, RAS-independent, luminescence (AID 1933); assay type: functional; settings: Homo sapiens
cells [8] = assay type: functional, cell-based
BJ [9] = assay: cells; assay type: functional, cell-based; settings: Homo sapiens
cells [10] = assay type: functional, cell-based; remark: listed apart in the source
BJ [11] = assay: cytotoxicity toward BJ-TERT-LT-ST fibroblasts, dose response, cell-based, RAS-independent, luminescence (AID 1935); assay type: functional; settings: Homo sapiens;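 also: BJ fibroblasts immortalized with TERT plus LT and ST oncogenes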
[12] = cytotoxicity toward DRD oncogenic fibroblasts, dose response, cell-based, non-viral oncogenic, luminescence (AID 1934); assay type: functional; settings: Homo sapiens
BJ [13] = assay: cytotoxicity toward Ras-transformed BJeLR fibroblasts, dose response, cell-based, alamar blue fluorescence, cherrypicked samples (AID 2631); assay type: functional; settings: Homo sapiens;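 also: confirmatory dose-response assay in RAS-dependent BJ fibroblasts engineered with TERT, LT and ST, with cytotoxicity read by fluorescence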
INS1 = assay: beta cell apoptosis inhibitors, cytokine rescue, dose response, luminescence, retest (AID 449756); assay type: functional, cell-based; settings: Rattus norvegicus;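 also: cell death triggered by IL-1 beta plus TNF-alpha plus IFN-gamma mixture; protective hits raise ATP signal compared with cytokine alone wells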

Row | Structure (SMILES) | IC50 (Vero [1]) | CC50 (Vero [2]) | IC50 (Exodeoxyribonuclease V) | IC50 [3] | IC50 [4] | further results
1 | Cn1cc(CN2CCCC(C(=O)Nc3ccc(-c4cccc(F)c4)cc3)C2)cn1 (stereo not drawn) | 22.6 µM (active) | 22.3 µM (active) |  |  |  | 
2 | O=C(Cn1cnc2ccccc21)Nc1ccc2c(c1)OCCCO2 |  |  | > 119 µM (inactive) | > 119 µM (inactive) |  | 
3 | Cc1ccn2c(=O)nc(SCC(=O)NCc3ccccc3Cl)nc2c1 |  |  |  |  | 8.34 µM (active) | 
4 | CN1CCN(CCCN2c3ccccc3Sc3ccc(S(=O)(=O)N(C)C)cc32)CC1 | > 25 µM (active) | > 25 µM (active) |  |  |  | 
5 | COc1ccc(C(=O)/C=C/c2ccc(OC)c(CN3CCOCC3)c2)cc1 | 9.3 µM (active) | 22.6 µM (active) |  |  |  | IC50 (Protein skinhead-1): 6.86 µM (active)
6 | CN(C)CCCN(C(=O)c1ccc2c(c1)OCCO2)c1nc2ccc(Cl)cc2s1 | > 25 µM (active) | > 25 µM (active) |  |  |  | 
7 | CC(c1ccccc1)C1OCC(C[N+]2(C)CCCCC2)O1 (stereo not drawn) |  |  |  |  | 2.75 µM (active) | IC50 [5]: 2.81 µM (active); IC50 [6]: 2.72 µM (active)
8 | Cc1c(C(=O)O)cccc1-c1ccc(/C=N/n2cnnc2)o1 |  |  |  |  | 6.52 µM (active) | 
9 | C/C(=N\NC1=NC(=O)C(CC(=O)O)S1)c1ccccn1 (stereo not drawn) |  |  | 73.3 µM (inactive) | > 118 µM (inactive) |  | 
10 | C/C(=N\Nc1ccc2nncn2n1)c1ccccn1 |  |  | 57.1 µM (inactive) | 114 µM (inactive) |  | EC50 (BJ [7]): 16 µM (active); EC50 (cells [8]): 6.99 µM (active); EC50 (BJ [9]): 4.29 µM (active); EC50 (cells [10]): > 350 µM (not active); EC50 (BJ [11]): 8.41 µM (inconclusive); EC50 [12]: 4.95 µM (active); EC50 (BJ [13]): 0.912 µM (active); AC50 (INS1): 0.898 µM (active)
